Laboratory results from PubChem BioAssay (NCI).
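Test compounds were applied to cells in 96-well plates for 48 hours at 5 doses. GI50 marks 50% less growth. TGI marks complete inhibition of growth.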

Legend:
Experiment in all cases: growth of human tumour cells (NCI), 48 h
DMS 114 small cell lung = tested on: DMS 114 small cell lung
EKVX NSCLC = tested on: EKVX NSCLC
K-562 leukemia = tested on: K-562 leukemia
KM20L2 colon = tested on: KM20L2 colon
M19-MEL melanoma = tested on: M19-MEL melanoma
MOLT-4 leukemia = tested on: MOLT-4 leukemia
OVCAR-8 ovarian = tested on: OVCAR-8 ovarian
SF-539 CNS = tested on: SF-539 CNS
SK-OV-3 ovarian = tested on: SK-OV-3 ovarian
SNB-78 CNS = tested on: SNB-78 CNS
SR leukemia = tested on: SR leukemia
PC-3 prostate = tested on: PC-3 prostate

Work on `O=c1[nH]c(=O)n(C2OC(COP(=O)(O)OP(=O)(O)O)C(O)C2O)cc1F` (stereo not given) yielded a TGI (DMS 114 small cell lung) greater than 50 µM, a TGI (EKVX NSCLC) of 42.5 µM and a TGI (K-562 leukemia) greater than 50 µM. It also gave a TGI (KM20L2 colon) greater than 50 µM, a TGI (M19-MEL melanoma) greater than 50 µM and a TGI (MOLT-4 leukemia) greater than 50 µM. It also gave a TGI (OVCAR-8 ovarian) greater than 50 µM, a TGI (SF-539 CNS) of 17.2 µM and a TGI (SK-OV-3 ovarian) of 47.8 µM. For the same molecule, the TGI (SNB-78 CNS) was greater than 50 µM and the TGI (SR leukemia) was greater than 50 µM.

`CC1=CC(O)C(O)C2(C)C1CC1OC(=O)C(O)C3C(C)C(O)C4(O)OCC13C42` (stereo not given) was tested, and the TGI (DMS 114 small cell lung) was 157 µM, the TGI (EKVX NSCLC) was 197 µM and the TGI (K-562 leukemia) was greater than 394 µM. It also gave a TGI (KM20L2 colon) of 233 µM, a TGI (M19-MEL melanoma) of 394 µM and a TGI (MOLT-4 leukemia) of 65.6 µM. The TGI (OVCAR-8 ovarian) was greater than 570 µM, the TGI (SF-539 CNS) was 237 µM and the TGI (SK-OV-3 ovarian) was 359 µM. The TGI (SNB-78 CNS) was 154 µM.

Molecule `CC1(O)C=CC2CCC1C2O` (stereo not given) has a TGI (DMS 114 small cell lung) of 32.1 µM, a TGI (EKVX NSCLC) greater than 100 µM and a TGI (K-562 leukemia) greater than 100 µM. It also gave a TGI (KM20L2 colon) greater than 100 µM, a TGI (M19-MEL melanoma) greater than 100 µM and a TGI (MOLT-4 leukemia) greater than 100 µM. The TGI (OVCAR-8 ovarian) was greater than 100 µM, the TGI (SF-539 CNS) was greater than 100 µM and the TGI (SK-OV-3 ovarian) was greater than 100 µM. The TGI (SNB-78 CNS) was greater than 100 µM and the TGI (SR leukemia) was 50.2 µM.

Work on `C/C(=N\NC(N)=O)C(CN1CCCCC1)C(c1ccccc1)c1c(O)c2ccccc2oc1=O` (stereo not given) yielded a TGI (DMS 114 small cell lung) greater than 100 µM, a TGI (EKVX NSCLC) greater than 100 µM and a TGI (K-562 leukemia) greater than 100 µM. For the same molecule, the TGI (KM20L2 colon) was greater than 100 µM, the TGI (M19-MEL melanoma) was greater than 100 µM and the TGI (MOLT-4 leukemia) was greater than 94.4 µM. For the same molecule, the TGI (OVCAR-8 ovarian) was greater than 100 µM, the GI50 (PC-3 prostate) was 95.3 µM and the TGI (PC-3 prostate) was greater than 100 µM. The TGI (SF-539 CNS) was greater than 100 µM, the TGI (SK-OV-3 ovarian) was greater than 100 µM and the TGI (SNB-78 CNS) was greater than 100 µM. For the same molecule, the TGI (SR leukemia) was greater than 100 µM.

`NC(Cc1cc(I)c(O)c(I)c1)C(=O)O` (stereo not given) gave a TGI (DMS 114 small cell lung) greater than 293 µM, a TGI (EKVX NSCLC) greater than 316 µM and a TGI (K-562 leukemia) greater than 500 µM. For the same molecule, the TGI (KM20L2 colon) was greater than 500 µM, the TGI (M19-MEL melanoma) was greater than 393 µM and the TGI (MOLT-4 leukemia) was greater than 500 µM. The TGI (OVCAR-8 ovarian) was greater than 500 µM, the TGI (SF-539 CNS) was greater than 500 µM and the TGI (SK-OV-3 ovarian) was greater than 500 µM. It also gave a TGI (SNB-78 CNS) greater than 500 µM.

Molecule `COc1cccc(NC(=O)CSc2nnc(-c3ccc(N=Cc4ccc(Cl)cc4)cc3)o2)c1` has a TGI (DMS 114 small cell lung) of 46.9 µM, a TGI (EKVX NSCLC) greater than 100 µM and a TGI (K-562 leukemia) greater than 100 µM. The TGI (KM20L2 colon) was 30.6 µM, the TGI (M19-MEL melanoma) was 60.8 µM and the TGI (MOLT-4 leukemia) was 93.3 µM. For the same molecule, the TGI (OVCAR-8 ovarian) was 58.4 µM, the TGI (SK-OV-3 ovarian) was greater than 100 µM and the TGI (SNB-78 CNS) was greater than 100 µM. It also gave a TGI (SR leukemia) greater than 100 µM.

`Cc1ccc(C(=O)N(C(C)C)C(C)C)cc1N=NN(C)C` was tested, and the TGI (EKVX NSCLC) was greater than 100 µM, the TGI (K-562 leukemia) was greater than 100 µM and the TGI (KM20L2 colon) was greater than 100 µM. For the same molecule, the TGI (M19-MEL melanoma) was greater than 100 µM, the TGI (MOLT-4 leukemia) was greater than 100 µM and the TGI (OVCAR-8 ovarian) was greater than 100 µM. It also gave a TGI (PC-3 prostate) greater than 100 µM, a TGI (SF-539 CNS) greater than 100 µM and a TGI (SK-OV-3 ovarian) greater than 100 µM. For the same molecule, the TGI (SNB-78 CNS) was greater than 100 µM and the TGI (SR leukemia) was greater than 100 µM.

`Cc1csc2c1C(=O)c1ccsc1C2=O` was tested, and the TGI (DMS 114 small cell lung) was 3.1 µM, the TGI (EKVX NSCLC) was 20 µM and the TGI (K-562 leukemia) was greater than 25.6 µM. It also gave a TGI (KM20L2 colon) of 17.6 µM, a TGI (M19-MEL melanoma) of 0.339 µM and a TGI (MOLT-4 leukemia) of 27.2 µM. The TGI (OVCAR-8 ovarian) was 11.3 µM, the TGI (PC-3 prostate) was 8.1 µM and the TGI (SF-539 CNS) was 3.93 µM. For the same molecule, the TGI (SK-OV-3 ovarian) was 40.5 µM, the TGI (SNB-78 CNS) was 16.5 µM and the TGI (SR leukemia) was greater than 45 µM.

With `COC(=O)c1ccc(-c2nc(C#N)c(N)o2)cc1` the TGI (EKVX NSCLC) was greater than 100 µM, the TGI (K-562 leukemia) was greater than 100 µM and the TGI (MOLT-4 leukemia) was greater than 100 µM. It also gave a TGI (OVCAR-8 ovarian) greater than 100 µM, a TGI (PC-3 prostate) greater than 100 µM and a TGI (SF-539 CNS) greater than 100 µM. For the same molecule, the TGI (SK-OV-3 ovarian) was greater than 100 µM and the TGI (SR leukemia) was greater than 100 µM.

With `C/C(O)=C(\C=N\C(N)=S)C(=O)Nc1ccccc1C` the TGI (EKVX NSCLC) was greater than 100 µM, the TGI (K-562 leukemia) was greater than 100 µM and the TGI (MOLT-4 leukemia) was greater than 100 µM. For the same molecule, the TGI (OVCAR-8 ovarian) was greater than 100 µM, the TGI (PC-3 prostate) was greater than 100 µM and the TGI (SF-539 CNS) was greater than 100 µM. The TGI (SK-OV-3 ovarian) was greater than 100 µM and the TGI (SR leukemia) was greater than 100 µM.

Molecule `O=S1(=O)NNC(=NCc2ccc(Cl)cc2)c2ccccc21` has a TGI (DMS 114 small cell lung) greater than 100 µM, a TGI (EKVX NSCLC) greater than 100 µM and a TGI (K-562 leukemia) greater than 100 µM. For the same molecule, the TGI (KM20L2 colon) was greater than 100 µM, the TGI (M19-MEL melanoma) was greater than 100 µM and the TGI (MOLT-4 leukemia) was greater than 100 µM. For the same molecule, the TGI (OVCAR-8 ovarian) was greater than 100 µM, the TGI (SF-539 CNS) was greater than 100 µM and the TGI (SNB-78 CNS) was greater than 100 µM.

Work on `CN1CCn2c(Br)ccc2C1=O` yielded a TGI (EKVX NSCLC) greater than 100 µM, a TGI (K-562 leukemia) greater than 100 µM and a TGI (KM20L2 colon) greater than 100 µM. For the same molecule, the TGI (M19-MEL melanoma) was greater than 100 µM, the TGI (MOLT-4 leukemia) was greater than 100 µM and the TGI (OVCAR-8 ovarian) was greater than 100 µM. It also gave a TGI (SF-539 CNS) greater than 100 µM, a TGI (SNB-78 CNS) greater than 100 µM and a TGI (SR leukemia) greater than 100 µM.

`COC(=O)C(/C(=N/NC(=O)c1ccncc1)C(=O)Nc1ccccc1OC)c1nc2ccc(Cl)cc2[nH]c1=O` (stereo not given) showed a TGI (EKVX NSCLC) greater than 100 µM, a TGI (K-562 leukemia) greater than 100 µM and a TGI (MOLT-4 leukemia) greater than 100 µM. The TGI (OVCAR-8 ovarian) was greater than 100 µM, the TGI (PC-3 prostate) was greater than 100 µM and the TGI (SF-539 CNS) was greater than 100 µM. For the same molecule, the TGI (SK-OV-3 ovarian) was greater than 100 µM and the TGI (SR leukemia) was greater than 100 µM.

For `CCCCc1c2c(nc3c1CCc1cc4c(nc1-3)-c1nc3c(c(CCCC)c1CC4)CCC/C3=C\c1ccccc1)/C(=C/c1ccccc1)CCC2`, the TGI (DMS 114 small cell lung) was greater than 100 µM, the TGI (EKVX NSCLC) was greater than 100 µM and the TGI (K-562 leukemia) was greater than 100 µM. The TGI (KM20L2 colon) was greater than 100 µM, the TGI (M19-MEL melanoma) was greater than 100 µM and the TGI (MOLT-4 leukemia) was greater than 100 µM. The TGI (OVCAR-8 ovarian) was greater than 100 µM, the TGI (SF-539 CNS) was greater than 100 µM and the TGI (SK-OV-3 ovarian) was greater than 100 µM. For the same molecule, the TGI (SNB-78 CNS) was greater than 100 µM and the TGI (SR leukemia) was greater than 100 µM.

With `O=C(CC(O)(C(F)(F)F)C(F)(F)F)C(CCCl)C(O)(C(F)(F)F)C(F)(F)F` (stereo not given) the TGI (EKVX NSCLC) was greater than 100 µM, the TGI (K-562 leukemia) was greater than 100 µM and the TGI (MOLT-4 leukemia) was greater than 100 µM. It also gave a TGI (OVCAR-8 ovarian) of 83.9 µM, a TGI (PC-3 prostate) greater than 100 µM and a TGI (SF-539 CNS) greater than 100 µM. For the same molecule, the TGI (SK-OV-3 ovarian) was greater than 100 µM and the TGI (SR leukemia) was greater than 100 µM.

In the case of `C/C(=C/CO[Si](C)(C)C(C)(C)C)C(=O)N(C)c1ccccc1I`, the TGI (EKVX NSCLC) is reported as 29.1 µM, the TGI (K-562 leukemia) is reported as greater than 100 µM and the TGI (MOLT-4 leukemia) is reported as 72.9 µM. For the same molecule, the TGI (OVCAR-8 ovarian) was 32.2 µM, the TGI (PC-3 prostate) was 27 µM and the TGI (SF-539 CNS) was 32.3 µM. The TGI (SK-OV-3 ovarian) was 35.5 µM and the TGI (SR leukemia) was 51.7 µM.

In the case of `COc1cc(C2C3=C(CCC3=O)Oc3cc4c(cc32)OCO4)cc(OC)c1OC` (stereo not given), the TGI (DMS 114 small cell lung) is reported as 0.725 µM, the TGI (EKVX NSCLC) is reported as greater than 100 µM and the TGI (K-562 leukemia) is reported as greater than 100 µM. For the same molecule, the TGI (KM20L2 colon) was 0.664 µM, the TGI (M19-MEL melanoma) was greater than 100 µM and the TGI (OVCAR-8 ovarian) was greater than 100 µM. For the same molecule, the TGI (SK-OV-3 ovarian) was greater than 100 µM and the TGI (SNB-78 CNS) was greater than 100 µM.
